Our source for the melting point values is a melting point compilation (Tetko et al.; mined from patent text by program, amines drawn as free bases though some values may be those of a salt).

A word on the melting point: it is the temperature, or range, at which the solid turns liquid. `CC(C)Cn1c(CNC(=O)OC(C)(C)C)c(-c2cccc(F)c2)c2cc(C(=O)O)ccc2c1=O` came in with a melting point of 206 to 207 °C.

Consider `O=C(Nc1nccs1)c1cn(-c2ccccc2)c2ccccc2c1=O`, for which the melting point was determined as 290 °C.

Compound `COCn1c(C(=O)O)cc2cccc(NS(=O)(=O)c3ccccn3)c21` displayed a melting point of 199 to 200 °C.

The compound `COc1ccc(CCN(O)C(=O)C(N)=O)cc1OC` registered a melting point of 143 to 144 °C.

Consider `CC(Br)C(=O)NS(=O)(=O)c1cccc2c1OC(C)(C)C2` (stereo not drawn), for which the melting point was 224 to 226 °C.

The compound `O=C(SCC(SC(=O)c1ccccc1)C(=O)O)c1ccccc1` (stereo not drawn) came in with a melting point of 116 to 118 °C.

Take `COC(=O)C(=O)c1cc(C(C)(C)C)c(O)c(C(C)(C)C)c1`: the melting point lay within 82.5 to 84 °C.

As to `COc1ccc(CCNC(=O)C(N)=O)cc1OC`, the melting point was 171 to 172 °C.

`CC(Cl)C(=O)c1ncc(Cl)cc1F` (stereo not drawn) had a melting point of 29 to 32 °C.

`CN(C)c1ccc(NC(=O)N2CCC(Nc3nccc(-c4c(-c5ccc(F)cc5)nc5occn45)n3)CC2)cc1` showed a melting point of 225 to 227 °C.

Regarding `CCCCCCCCCCNC(=O)C=Cc1cccc(N2CC(C(=O)OCCN(CC)CC)CC2=O)c1` (stereo not drawn), the melting point is 78 to 80 °C.

Compound `CN(O)C(=O)c1ccc(NCCCc2ccccc2)cc1` showed a melting point of 107 to 108 °C.

Compound `CN(c1ccc(S(C)(=O)=O)cc1)S(=O)(=O)c1cccc(NC(=O)c2ccc(S(C)=O)cc2)c1` (stereo not drawn) gave a melting point of 184 to 186 °C.

`O=C1c2cc(O)ccc2OCN1CCO[N+](=O)[O-]` returned a melting point of 80 °C.

As to `NC(=O)C(c1cccc(F)c1)N(C(=O)c1cccn2ccnc12)C(F)(F)F` (stereo not drawn), the melting point is 118 to 120 °C.

In the case of `COc1ccccc1Oc1c(NS(=O)(=O)c2cccs2)nc(-c2ncccn2)nc1OCCOc1ncc(Br)cn1`, the melting point was greater than 300 °C.

Compound `CCC1(CC)C(=O)N(C(C)(C)C)CC(C)(C)N1C(C)c1ccc(C(C)=O)cc1` (stereo not drawn) came in with a melting point of 91 to 94 °C.

With `COC(=O)c1ccc2ccc3ccccc3c(=O)c2c1`, the melting point fell in the range of 118 to 120 °C.

Regarding `CC(C)c1csc(CO)n1`, the melting point lay in the range of 80 to 82 °C.

In the case of `CCOC(=O)c1ccc(OCc2nc(C)c(C)nc2C)cc1`, the melting point was 75 to 75.7 °C.

The compound `Cc1ccc(Br)cc1-n1nc(-c2ccc(O)cc2O)c2ccc(O)cc21` yielded a melting point of 88 to 91 °C.

As for `C=C(C(=O)c1ccc(C(=O)O)cc1)c1cc(-c2cccs2)ccc1OC`, the melting point is greater than 250 °C.

Compound `CC(=O)Nc1ccc(CC(=O)O)cc1Br` gave a melting point of 157 to 159 °C.

The compound `CC(Oc1ccc(Cl)c(Cl)c1)c1ccnc2ncnn12` (stereo not drawn) gave a melting point of 146 to 149 °C.

Regarding `COc1ccc(N2CCN(c3c(C)c4c(c(OC)c3C)OC(C)C4)CC2)cc1C` (stereo not drawn), the melting point lay within 94 to 96 °C.

Take `O=c1c(Cc2cccnc2)cc2cccnc2n1-c1cccc([N+](=O)[O-])c1`: the melting point lay in the range of 226 to 227 °C.

The compound `COc1cc(OCCOc2ccccc2)cc2nc(-c3cc(C)nc(C)c3)[nH]c(=O)c12` yielded a melting point of 223 to 224 °C.

As for `Nc1cccc(Oc2ccc(C(=O)c3ccc(C#Cc4ccccc4)cc3)cc2)c1`, the melting point was in the range of 137 to 139 °C.

`O=C(c1ccc(-n2ccc(C(F)(F)F)n2)cc1C(F)(F)F)N1Cc2cccnc2Nc2ccccc21` had a melting point of 127 to 129 °C.

In turn, `CN(C)C(=O)CC(=O)c1ccc(C(=O)CC(=O)N(C)C)cc1` displayed a melting point of 188 to 189 °C.

As for `CN(C)C(=O)N(CCl)c1ccc(Cl)cc1`, the melting point lay within 37 to 43 °C.

Take `CN(C)C1=CCCS(=O)(=O)c2ccc(Cl)cc21`: the melting point was in the range of 93 to 95 °C.

Consider `O=C(/C=C/c1cccc(S(=O)(=O)N2CCN(c3ncccn3)CC2)c1)NO`, for which the melting point was determined as 200 °C.

Compound `COc1ccc(-c2cc3ccc(C(=O)O)cc3s2)cc1C12CC3CC(CC(C3)C1)C2` returned a melting point of 305 °C.

Regarding `Cc1cc(Cl)ccc1NC(=O)c1cccc(S(=O)(=O)N(C)c2ccc(Br)cc2)c1`, the melting point was 163 to 164 °C.

On to `Cn1nc2c(N)nc3ccccc3c2c1CCc1ccccc1`, for which the melting point fell in the range of 210 to 212 °C.

Turning to `CC(C)(C)C(Br)(Br)C(=O)O`, the melting point fell in the range of 241 to 243 °C.

Compound `CCOC(=O)c1cc2c(OCc3ccccc3)cccc2n1C` came in with a melting point of 89 to 90.5 °C.

With `COc1cc(Nc2cc(-c3nnc(C)o3)ccn2)cc(C(F)(F)F)c1`, the melting point fell in the range of 241 to 242 °C.

`Cc1ccc(-n2nc(C(C)(C)C)cc2NC(=O)Nc2ccc(OCCN3CCOCC3)c3ccccc23)cc1` came in with a melting point of 142 to 143 °C.

Compound `CCCn1c(-c2ccc(-n3ccnc3)cc2)cnc1[C@H](Cc1ccccn1)N(C=O)c1cc2cc(Br)ccc2o1` displayed a melting point of 93 to 99 °C.

In turn, `CN(c1cccc2cc(-c3ncc(CC#N)s3)[nH]c12)S(=O)(=O)c1cccs1` returned a melting point of 186 to 187 °C.

`O=C(O)c1ccc(NCC(O)C(O)C(O)C(O)CO)cc1` (stereo not drawn) showed a melting point of 111 to 112 °C.

As to `CCC(=O)c1ccc(C(=O)CC)cc1`, the melting point was in the range of 98 to 101 °C.

The compound `CC(=O)CC(=O)Nc1ccc(Cn2ccnc2)cc1` had a melting point of 175 °C.

`O=C(O)Cc1ccc(C(=O)c2cccs2)cc1` displayed a melting point of 126 to 129 °C.

`CCOC(=O)CCC1Cn2c(-c3ccc(OC)cc3)c(C)c3cccc(c32)O1` (stereo not drawn) showed a melting point of 154 °C.

`COc1cc2c(c(OC)c1)C1CCC3(C)C(=O)CCC3C1CC2` (stereo not drawn) displayed a melting point of 132 to 133 °C.

On to `CCCS(=O)(=O)c1cc([C@H]2CC[C@H](c3cc(OC)c(OC)c(OC)c3)O2)cc(OC)c1OCCBr` (relative stereo), for which the melting point fell in the range of 135 to 136 °C.

`COc1cc(OC)c(C(=O)CC(=O)c2cc(OC)c(OC)cc2OC)cc1OC` showed a melting point of 173 to 176 °C.

As for `O=S(=O)(c1ccc2c(Cl)cnc(Cl)c2c1)N1CCC[C@@H]1CO`, the melting point was 168 °C.

For `COc1ccc2c(c1)N(c1ccc(F)cc1)C(=O)C2(C)NC(=O)OCc1ccccc1` (stereo not drawn), the melting point fell in the range of 167 to 169 °C.

`CN(c1cccc2cc(C3=NCC(CC(N)=O)S3)[nH]c12)S(=O)(=O)c1nccs1` (stereo not drawn) registered a melting point of 216 to 218 °C.

In turn, `C[C@H](NC(=O)OC(C)(C)C)C(=O)OCCCCNc1cccc2c1C(=O)c1ccccc1C2=O` yielded a melting point of 100 °C.

`Cc1ccc([N+](=O)[O-])c2[nH]cc(CO)c(=O)c12` returned a melting point of 251 to 255 °C.

For the compound `Clc1c2c(nc3cn[nH]c13)CCCC2`, the melting point was 190 to 193 °C.

Compound `C[Si](C)(C)C#Cc1ccc2c(c1)C(c1ccccc1F)=NCc1c(C(=O)OCC(F)(F)F)ncn1-2` had a melting point of 220 to 221 °C.

`COc1ccc2c(c1OC)C(=O)OC21CN(C)Cc2ccccc21` (stereo not drawn) came in with a melting point of 193 to 194 °C.

`O=c1oc2c(ccc3ccccc32)c2c1CNCC2` showed a melting point of 227 to 230 °C.

Compound `CN1C(c2ccc(N3CCCCC3)cc2)=NC(C(F)(F)F)(C(F)(F)F)C1NC(=O)c1ccc(F)cc1` (stereo not drawn) displayed a melting point of 123 to 124 °C.

As to `CCCC(=O)C(=CNc1ccc(CO)cc1)C(=O)OCC`, the melting point lay within 44 to 46 °C.

In turn, `Cc1[nH]c(-c2ccccc2)nc1-c1cc(C(C)(C)C)c(O)c(C(C)(C)C)c1` came in with a melting point of 298 to 300 °C.

The compound `COc1cc(Nc2c(C#N)cnc3sc(-c4ccc(C=O)cc4)cc23)c(Cl)cc1Cl` returned a melting point greater than 240 °C.

In turn, `Cc1cc(OCc2nc3ccccc3s2)ccc1N` displayed a melting point of 110 to 111 °C.

As to `Cn1c(=O)c2cnc(N)nc2n(C)c1=O`, the melting point is greater than 300 °C.

`CCOC(=O)CCNCC(O)COc1ccc(OC)cc1C#N` (stereo not drawn): the melting point was determined as 76 °C.

With `OCCCCc1ccc(OCc2coc(/C=C/c3ccc(F)cc3F)n2)cc1`, the melting point lay within 75 to 76 °C.

`Cc1ncsc1C(=O)Nc1ccc(-n2nc(C(F)(F)F)c(Cl)c2C2CC2)nc1`: the melting point lay in the range of 144 to 149 °C.

In turn, `N#Cc1cc(-c2nccs2)nn1-c1ccc(NC(=O)c2ccncc2F)cc1` displayed a melting point of 210 to 211 °C.

The compound `COc1cccc2c1nc(C)c1ccn(-c3ccccc3C)c12` gave a melting point of 143 to 145 °C.

Take `O=S(=O)(Nc1ccc(Oc2ccc3cccnc3c2)cc1)c1ccc(F)cc1`: the melting point was in the range of 175 to 178 °C.

In the case of `CCCc1c(OCCCOc2ccc(C(=O)OCC)cc2F)ccc(C(C)=O)c1O`, the melting point was in the range of 87 to 88 °C.

As to `O=C(O)c1cc(-c2ccc(C(F)(F)F)cc2)nc(C(F)(F)F)c1`, the melting point was in the range of 204 to 205 °C.

Take `O=S(=O)(CC(O)(CO)c1ccccc1)c1ccccc1` (stereo not drawn): the melting point was 137 °C.

With `N#Cc1cccc2c3c([nH]c12)CCNC3`, the melting point lay in the range of 230 to 235 °C.

Turning to `O=C(C=CCN1CCOCC1)Nc1cc2c(Nc3ccc(F)c(Cl)c3)ncnc2cc1OC1CCCC1`, the melting point amounted to 143 °C.

As to `CCc1c(Br)c2ccccn2c1C(=O)c1cc(Br)c(O)c(Br)c1`, the melting point is 195 °C.

Take `C#CCOc1ccc(C(=O)C=Cc2c(OC)cc(OC)cc2OC)c(O)c1`: the melting point fell in the range of 177 to 179 °C.

`CCOC(=O)N1CCn2c(nc(-c3ccncn3)cc2=O)C(NCc2ccc(OC)cc2)C1` (racemic): the melting point is 217 to 219 °C.

The compound `CC(C)CCCC(C)C1CCC2C3CC(Br)=C4CC(O)CCC4(C)C3CCC12C` (stereo not drawn) gave a melting point of 155 °C.

`COc1cccc(CN2CCC(N3C(=O)Nc4ccccc4C3c3cccc(O)c3)CC2)c1` (stereo not drawn) gave a melting point greater than 250 °C.

Take `COC(=O)Cn1c(=O)c2ccccc2n(CCCCl)c1=O`: the melting point lay in the range of 144 to 146 °C.

As for `CCCCCC(CC(=O)O)c1ccc(OC)cc1OC` (single isomer, unassigned; (+)), the melting point lay within 51 to 52 °C.

For `Nc1ccccc1C(=O)NCCN1CCC2(CC1)C(=O)NCN2c1ccc(F)cc1`, the melting point was determined as 195 °C.

Turning to `Cc1ccccc1-n1c(CCl)nc2ccccc2c1=O`, the melting point was in the range of 205 to 206 °C.

Consider `CN1CC(CCN2CCOCC2)c2nc3ccccc3n2C1=O` (stereo not drawn), for which the melting point is 111 to 112 °C.

`COc1ccc(C(=O)c2ccc3nc(Cl)nc(-c4cccc(Cl)c4)c3c2)cc1`: the melting point stood at 164 °C.

Compound `COC(=O)c1ncoc1CCNC(=O)OCc1ccccc1` yielded a melting point of 68 to 70 °C.
